Test results reported in PubChem BioAssay (NCI).
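1) Cells in 96-well plates. 2) Compound, 48 h, 5 concentrations. 3) Linear interpolation between surrounding doses. 4) Unreached endpoint = highest concentration. Abbreviation: GI50, concentration required for 50% inhibition of growth. Definition used: TGI = concentration required for complete inhibition of growth.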

Experiments:
Assay in all cases: DTP human tumour cell line panel, 48 h
SNB-19 CNS = tested on: SNB-19 CNS
HL-60(TB) leukemia = tested on: HL-60(TB) leukemia
OVCAR-8 ovarian = tested on: OVCAR-8 ovarian
OVCAR-5 ovarian = tested on: OVCAR-5 ovarian
MCF7 breast = tested on: MCF7 breast
SR leukemia = tested on: SR leukemia
HOP-92 NSCLC = tested on: HOP-92 NSCLC
OVCAR-3 ovarian = tested on: OVCAR-3 ovarian
T-47D breast = tested on: T-47D breast
SK-MEL-5 melanoma = tested on: SK-MEL-5 melanoma
SK-MEL-2 melanoma = tested on: SK-MEL-2 melanoma
SF-539 CNS = tested on: SF-539 CNS
NCI-H226 lung = tested on: NCI-H226 lung
MOLT-4 leukemia = tested on: MOLT-4 leukemia
MALME-3M melanoma = tested on: MALME-3M melanoma
CAKI-1 renal = tested on: CAKI-1 renal
RPMI-8226 leukemia = tested on: RPMI-8226 leukemia
TK-10 renal = tested on: TK-10 renal
UO-31 renal = tested on: UO-31 renal
U251 CNS = tested on: U251 CNS
SF-268 CNS = tested on: SF-268 CNS
786-0 renal = tested on: 786-0 renal
PC-3 prostate = tested on: PC-3 prostate
EKVX NSCLC = tested on: EKVX NSCLC
IGROV1 ovarian = tested on: IGROV1 ovarian
K-562 leukemia = tested on: K-562 leukemia
NCI-H23 lung = tested on: NCI-H23 lung
SK-OV-3 ovarian = tested on: SK-OV-3 ovarian
M14 melanoma = tested on: M14 melanoma
A549 NSCLC = tested on: A549 NSCLC

SMILES: O=C(N/N=C/c1ccc(B(O)O)s1)c1[nH]c2ccc(Br)cc2c1-c1ccccc1
- GI50 (SNB-19 CNS): 0.387 µM
- TGI (SNB-19 CNS): 13.5 µM
- GI50 (HL-60(TB) leukemia): 0.23 µM
- TGI (HL-60(TB) leukemia): 0.659 µM
- GI50 (OVCAR-8 ovarian): 0.272 µM
- TGI (OVCAR-8 ovarian): 0.816 µM
- GI50 (OVCAR-5 ovarian): 0.39 µM
- TGI (OVCAR-5 ovarian): 13.9 µM
- GI50 (MCF7 breast): 0.333 µM
- TGI (MCF7 breast): 10.5 µM
- GI50 (SR leukemia): 0.364 µM
- TGI (SR leukemia): 14.3 µM
- GI50 (HOP-92 NSCLC): 0.974 µM
- TGI (HOP-92 NSCLC): 6.34 µM
- GI50 (OVCAR-3 ovarian): 0.302 µM
- TGI (OVCAR-3 ovarian): 2.96 µM
- GI50 (T-47D breast): 3.74 µM
- TGI (T-47D breast): 22.7 µM
- GI50 (SK-MEL-5 melanoma): 0.215 µM
- TGI (SK-MEL-5 melanoma): 0.497 µM
- GI50 (SK-MEL-2 melanoma): 0.432 µM
- TGI (SK-MEL-2 melanoma): 14 µM
- GI50 (SF-539 CNS): 0.227 µM
- TGI (SF-539 CNS): 0.551 µM
- GI50 (NCI-H226 lung): 0.511 µM
- TGI (NCI-H226 lung): 5.43 µM
- GI50 (MOLT-4 leukemia): 0.459 µM
- TGI (MOLT-4 leukemia): 14.4 µM
- GI50 (MALME-3M melanoma): 0.512 µM
- TGI (MALME-3M melanoma): 21.1 µM
- GI50 (CAKI-1 renal): 0.444 µM
- TGI (CAKI-1 renal): 13.6 µM
- GI50 (RPMI-8226 leukemia): 0.521 µM
- TGI (RPMI-8226 leukemia): > 52.3 µM
- GI50 (TK-10 renal): 7.96 µM
- TGI (TK-10 renal): 22.9 µM
- GI50 (UO-31 renal): 1.05 µM
- TGI (UO-31 renal): 14.1 µM
- GI50 (U251 CNS): 0.311 µM
- TGI (U251 CNS): 4.6 µM
- GI50 (SF-268 CNS): 0.515 µM
- TGI (SF-268 CNS): 10.2 µM
- GI50 (786-0 renal): 0.411 µM
- TGI (786-0 renal): 8.28 µM
- GI50 (PC-3 prostate): 0.476 µM
- TGI (PC-3 prostate): 16.5 µM
- GI50 (EKVX NSCLC): 0.425 µM
- TGI (EKVX NSCLC): 11.2 µM
- GI50 (IGROV1 ovarian): 0.403 µM
- TGI (IGROV1 ovarian): 13.1 µM
- GI50 (K-562 leukemia): 0.354 µM
- TGI (K-562 leukemia): 16.3 µM
- GI50 (NCI-H23 lung): 0.378 µM
- TGI (NCI-H23 lung): 13.2 µM
- GI50 (SK-OV-3 ovarian): 0.691 µM
- TGI (SK-OV-3 ovarian): 15 µM
- GI50 (M14 melanoma): 0.371 µM
- TGI (M14 melanoma): 12.7 µM
- GI50 (A549 NSCLC): 0.423 µM
